Data reported in ChEMBL document CHEMBL1126921, “Heterocyclic lactam derivatives as dual angiotensin converting enzyme and neutral endopeptidase 24.11 inhibitors” (J Med Chem, 1993).

Key:
[1] = molecular target: T1, Angiotensin-converting enzyme (Oryctolagus cuniculus, UniProt P12822); assay: Tested in vitro for the inhibition of angiotensin converting enzyme from rabbit lung
T1 sequence (P12822 whole entry): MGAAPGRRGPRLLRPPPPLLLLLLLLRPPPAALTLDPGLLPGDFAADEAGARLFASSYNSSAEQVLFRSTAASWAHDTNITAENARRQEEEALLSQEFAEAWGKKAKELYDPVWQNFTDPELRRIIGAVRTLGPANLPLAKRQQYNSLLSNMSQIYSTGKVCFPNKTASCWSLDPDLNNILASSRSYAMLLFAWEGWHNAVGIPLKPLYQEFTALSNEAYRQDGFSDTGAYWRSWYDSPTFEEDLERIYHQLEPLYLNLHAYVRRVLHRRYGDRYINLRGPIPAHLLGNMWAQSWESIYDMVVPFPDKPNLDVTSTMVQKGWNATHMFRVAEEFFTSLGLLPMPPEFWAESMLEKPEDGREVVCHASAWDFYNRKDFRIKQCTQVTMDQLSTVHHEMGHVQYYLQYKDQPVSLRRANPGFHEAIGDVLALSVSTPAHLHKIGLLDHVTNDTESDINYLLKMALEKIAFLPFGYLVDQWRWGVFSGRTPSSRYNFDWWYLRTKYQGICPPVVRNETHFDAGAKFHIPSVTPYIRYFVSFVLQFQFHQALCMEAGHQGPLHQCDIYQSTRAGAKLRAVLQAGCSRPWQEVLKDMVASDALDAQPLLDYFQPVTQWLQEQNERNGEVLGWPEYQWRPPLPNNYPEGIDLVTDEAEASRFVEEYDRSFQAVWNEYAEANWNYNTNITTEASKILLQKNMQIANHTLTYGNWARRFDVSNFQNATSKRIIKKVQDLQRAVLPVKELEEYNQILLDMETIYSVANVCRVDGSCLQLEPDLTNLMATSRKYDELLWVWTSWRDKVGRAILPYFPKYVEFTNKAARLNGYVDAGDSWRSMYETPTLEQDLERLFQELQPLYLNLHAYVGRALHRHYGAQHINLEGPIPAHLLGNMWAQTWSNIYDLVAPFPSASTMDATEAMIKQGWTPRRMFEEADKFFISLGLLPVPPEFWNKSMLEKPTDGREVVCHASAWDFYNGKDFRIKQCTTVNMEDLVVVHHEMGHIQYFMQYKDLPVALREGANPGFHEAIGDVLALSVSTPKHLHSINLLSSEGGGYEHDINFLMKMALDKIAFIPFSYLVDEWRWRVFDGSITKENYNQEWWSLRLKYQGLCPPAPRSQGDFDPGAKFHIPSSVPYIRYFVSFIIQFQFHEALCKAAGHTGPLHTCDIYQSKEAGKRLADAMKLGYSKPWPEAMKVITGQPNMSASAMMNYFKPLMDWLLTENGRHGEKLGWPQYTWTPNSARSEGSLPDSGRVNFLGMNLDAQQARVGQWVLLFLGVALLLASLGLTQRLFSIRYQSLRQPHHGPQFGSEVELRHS

Neprilysin = molecular target: T2, Neprilysin (Rattus norvegicus, UniProt P07861); assay: Tested in vitro for the inhibition against neutral endopeptidase (NEP) from rat kidney
T2 sequence (P07861 whole entry): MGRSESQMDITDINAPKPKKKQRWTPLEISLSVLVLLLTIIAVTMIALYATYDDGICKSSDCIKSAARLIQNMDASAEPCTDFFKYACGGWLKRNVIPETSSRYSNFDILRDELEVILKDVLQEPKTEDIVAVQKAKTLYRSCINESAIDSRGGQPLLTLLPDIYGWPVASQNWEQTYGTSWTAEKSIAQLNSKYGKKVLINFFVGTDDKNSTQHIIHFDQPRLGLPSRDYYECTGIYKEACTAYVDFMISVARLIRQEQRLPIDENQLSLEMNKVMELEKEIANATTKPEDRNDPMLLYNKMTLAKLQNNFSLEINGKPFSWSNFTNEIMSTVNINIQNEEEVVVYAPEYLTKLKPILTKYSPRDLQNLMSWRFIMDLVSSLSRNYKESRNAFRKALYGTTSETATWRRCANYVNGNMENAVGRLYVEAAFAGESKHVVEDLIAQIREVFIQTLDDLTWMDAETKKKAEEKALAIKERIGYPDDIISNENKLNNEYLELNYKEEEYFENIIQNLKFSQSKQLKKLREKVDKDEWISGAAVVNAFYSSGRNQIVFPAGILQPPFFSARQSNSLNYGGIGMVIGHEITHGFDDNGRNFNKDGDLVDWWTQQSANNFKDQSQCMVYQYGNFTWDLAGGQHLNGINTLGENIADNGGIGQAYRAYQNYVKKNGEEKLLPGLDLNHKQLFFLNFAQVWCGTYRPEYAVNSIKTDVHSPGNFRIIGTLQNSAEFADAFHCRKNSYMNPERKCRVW

Rattus norvegicus [2] = assay: Tested for the inhibition of angiotensin I (AI) pressor response after 2 hours following an oral dose of 10 mg/kg; format: functional
Rattus norvegicus [3] = assay: Tested for the inhibition of angiotensin I (AI) pressor response after 0.5 hour following an oral dose of 10 mg/kg; format: functional
Rattus norvegicus [4] = assay: Tested for the inhibition of angiotensin I (AI) pressor response after 1 hour following an oral dose of 10 mg/kg; format: functional
Rattus norvegicus [5] = assay: Tested for the plasma concentration based on ex vivo NEP inhibition after 1 hour following an oral dose of 10 mg/kg; format: functional, organism-based; set-up: dose 10 mg/kg
Rattus norvegicus [6] = assay: Tested for the plasma concentration based on ex vivo NEP inhibition after 0.5 hour following an oral dose of 10 mg/kg; format: functional, organism-based; set-up: dose 10 mg/kg
Rattus norvegicus [7] = assay: Tested for the plasma concentration based on ex vivo NEP inhibition after 2 hours following an oral dose of 10 mg/kg; format: functional, organism-based; set-up: dose 10 mg/kg
Rattus norvegicus [8] = assay: Tested for the plasma concentration based on ex vivo NEP inhibition after 3 hours following an oral dose of 10 mg/kg; format: functional, organism-based; set-up: dose 10 mg/kg

| Structure (SMILES) | IC50 [1] | IC50 (Neprilysin) | inhibition in vivo at 10 mg/kg (Rattus norvegicus [2]) | inhibition in vivo at 10 mg/kg (Rattus norvegicus [3]) | inhibition in vivo at 10 mg/kg (Rattus norvegicus [4]) | also measured |
| --- | --- | --- | --- | --- | --- | --- |
| O=C1N[C@H](C(=O)O)CSCCCCCCCC1CS (single isomer, unassigned; isomer A) | 72 nM | 190 nM | – | – | – | – |
| O=C1N[C@H](C(=O)O)CSCCCCCCCC1CS (single isomer, unassigned; isomer B) [listing 1 of 2 here] | 12 nM | 18 nM | 0% | 71% | 17% | – |
| O=C1N[C@H](C(=O)O)CSCCCCCCCC1CS (single isomer, unassigned; isomer B) [listing 2 of 2 here] | – | – | – | – | – | Plasma concentration (Rattus norvegicus [5]): 0.32 µM; Plasma concentration (Rattus norvegicus [6]): 1.81 µM; Plasma concentration (Rattus norvegicus [7]): 0.17 µM; Plasma concentration (Rattus norvegicus [8]): 0.06 µM |
| O=C1N[C@H](C(=O)O)CSCCCCCCCCC1CS (stereo in doubt; 12a) | 4600 nM | 1300 nM | – | – | – | – |
| O=C1N[C@H](C(=O)O)CSCCCCCCCCC1CS (stereo in doubt; 12b) | 17 nM | 167 nM | – | – | – | – |
| O=C(O)CN1C(=O)[C@@H](N[C@@H](CCc2ccccc2)C(=O)O)CCc2ccccc21 [BENAZEPRILAT] | – | – | 77% | 100% | 86% | – |
